Results from US20070043034A1, “Chlorine Ion Uptake Modulators and Uses Thereof” (priority 2005, published 2007).

Assays:
Na^+-K^+-ATPase = assay: Activity-dependent change of Cli after postsynaptic action potential trains in CA1 pyramidal neurons; format: cell-based, rat; conditions: in the presence of DHO 10 μM; 20 Hz, 2.5 min trains; P=0.27
Procedure: The GABAB receptor antagonist CGP 55845A (1 μM) was included in the bath for most experiments. Bumetanide was stored as a 50 mM stock solution in ethanol at 4° C. and then diluted to 10 μM in ACSF. Dihydroouabain (10 μM) was diluted into ACSF and bath applied.
Action potentials in current-clamped neurons was invoked by injecting depolarizing current pulses (1.5 ms, 2 nA) at 20 Hz for 2.5 min.
Persistent increases in Cli and the GABA reversal potential have been observed following trains of action potentials. Action potential trains have long been known to cause long-lasting increases in the activity of Na^+—K^+-ATPase and corresponding changes in RMP. If NKCCl-mediated transport were thermodynamically limited, then the changes in ECl observed following action potential trains could be due to altered Na^+ and K^+ transmembrane gradients. Without being bound by any theory, it is believed that of the two cations, Nai would be most labile and would have the most influence on the Cli at which NKCCl-mediated transport reached equilibrium. Steady-state ECl and Cl^− transport kinetics were measured before and after a 20 Hz, 2.5 minute train of action potentials. […]
FIGS. 10A-10D show activity-dependent increases in Cli. FIG. 10A is a graph showing that following a train of action potentials in the recorded cell (20 Hz, 2.5 min), Cli reached a new steady state. […]

KA-induced rat seizures = assay: Kainic acid (KA) induced seizures in rat pups, EEG recording in vivo; conditions: KA 2 mg/kg s.c.
Source text: Kainic Acid (KA) is a commonly used agent for creating an in vivo neonatal-like seizure model in rats for study. It is believed that this seizure model closely parallels human neonatal seizure disorders. KA, a glutamate receptor agonist, was used to induce neonatal-like seizures in postnatal (P) 7-12 day male Wistar rats. The rats were equipped with electrodes including recording and reference electrodes by standard means. There are many known methods for measuring parameters of seizures, in this example electrical signals were digitized using an analogue-to-digital converter for example a DigiData 1322A (Axon Instuments USA). The sampling interval can vary depending on the desired target interval. In this example, the sampling interval per signal was 200 […]s (5 kHz). For data analysis, several computer programs exist for capturing and analyzing these seizure parameters such as Clamp 9.2 (Axon Instruments, USA) and Origon 5.0 (Microcal Software, USA) used here. Interictal spikes were determined by typical means utilizing band-pass filtered raw data.
Many known methods exist for analyzing the power levels of different frequency components in a signal such as a signal recorded from a seizure episode. For example, power spectrum analysis can be performed after applying a Hamming window function. Unless otherwise indicated, power was calculated in 1-2 min time windows by integrating the root mean square value of the signal in frequency bands from 1 to 100 Hz (EEC band) and from 200 to 500 Hz (fast ripple band).
Pharmaceutical compositions of the present invention can be administered to seizure-induced rats to test the seizure modulatory properties of the pharmaceutical composition. In one exemplary method, the inhibition of NKCCl and its affect on seizures in rat pups was studied. Two days after implantation of recording electrodes, six P9-P10 rats received subcutaneous injection of KA (2 mg/kg) and six P9-10 control rats received subcutaneous 0.9% sodium chloride saline injections. 10-20 minutes after KA injection regular pattern of behavioral signs started, involving scratching-like movements of the hindpaws, loss of balance and turning on the side. Recurrent interictal and ictal electroencephalographic patterns occurred 20-80 minutes (61.2±10.4 min; mean±se) after KA injection in all rats from this experimental group (FIG. 4B). […] Interictal spikes usually occurred synchronously in the left and right hemispheres. Frequency of the interictal spikes was 1.43±0.06 Hz (n=23 seizures in 6 rats). Before transition to ictal patterns, interictal spikes were usually followed by fast ripple (100-500 Hz) and gamma-frequency oscillations (20-50 Hz). Tonic-clonic seizures were the most common type of seizures induced by KA in P9-10 rats. Ictal-tonic phase lasted 12.6±1.4 s (16 seizures in 5 rats). Population spikes of 18.7±1.2 Hz were characteristic of the tonic phase of KA-induced seizures (FIG. 4C). Tonic discharges were followed by clonic bursts (FIG. 4C). Large amplitude population spikes followed by 100-200 Hz ripples and 200-1200 ms gamma frequency after discharges characterized the clonic bursts. The mean duration of the clonic phase was 36.4±5 s (25 seizures in 6 rats). The ictal patterns were followed by postictal depression (FIG. 4 B-4C). During ictal EEG activity, motor activity consisted of scratching, jerky movements, turning on the side or on the back and frequent tail shaking. Five to ten recurrent seizures with an average interval 379±24.5 s were followed by periodic epileptiform discharges (PLEDs) (FIG. 4D).
In one exemplary experiment, a pharmaceutical composition of the present invention comprising bumetanide was compared to phenobarbital for effects on KA-induced rat seizures. Two days after implantation of recording electrodes, twenty-two P9-12 age-matched rats received subcutaneous injection with KA (2 mg/kg). […]

[1] = system: low-Mg^2+ induced recurrent seizures in the intact hippocampus; assay: Low-Mg2+ ACSF induced recurrent seizures in the intact hippocampus in vitro; format: cell-based, rat; conditions: phenobarbital 100 μM
Source text: High expression level of the Na^+ K^+-2Cl^− (NKCCl) co-transporter in immature neurons causes the accumulation of chloride ions and a depolarized Cl^− equilibrium potential (ECl). This is linked to a higher seizure propensity and poor EEG response in neonates to the barbiturates and benzodiazepines, conventional anticonvulsant drugs that target Cl^−-permeable GABAA-receptor (GABAA-R) operated channels. […] Recurrent ictal-like seizures were induced by low-Mg^+ ACSF in intact hippocampal preparations in vitro. […] Bumetanide decreased both seizure frequency and seizure power.
FIGS. 11A-11C are graphs of low-Mg^2+πinduced recurrent seizures in the intact hippocampus in vitro. […] First and last seizures from 5 hour recording are shown on an expanded time scale. Right, corresponding power spectra in the 0.1-1000 Hz frequency band. […] Summary data are taken from ten hippocampi. […] Power of the first seizure in each recording was considered as 100%. Data are taken from 18 recordings in 10 preparations from P4-6 rats.
FIGS. 12A-12C are graphs showing low efficiency of phenobarbital in neonatal seizures. FIG. 12A is a graph showing extracellular field potential recording in the CA3 pyramidal cell layer in the intact hippocampus of a P5 rat. Continuous application of low-Mg^2+ ACSF induced recurrent tonic-clonic seizures. […] The right portion corresponds to power spectra in the 0.1-1000 Hz frequency range. […] Data are from ten experiments that were combined. FIG. 12C is a graph showing power of recurrent seizures before, during and after phenobarbital application. Power of the first seizure in each recording was considered as 100%. Seizures were not depressed by phenobarbital indicating its low efficiency.
FIGS. 13A-13C are graphs showing that alteration of Cl^−-transport by bumetanide enhanced efficacy of phenobarbital in neonatal seizures. FIG. 13A is a graph of extracellular field potential recording in the CA3 pyramidal cell layer in the intact hippocampus of a P5 rat. Application of low-Mg^2+ ACSF induced recurrent seizures. […] These are shown on an expanded time scale. The right portion of FIG. 13A is a power spectra of extracellular field potential activity before and during application of drugs. FIG. 13B is a graph showing inter-seizure intervals before, during and after application of drugs. In 75% of experiments seizures were abolished (ISI>120 min) by simultaneous application of phenobarbital and bumetanide. FIG. 13C is a graph showing power of recurrent seizures before, during and after simultaneous application of phenobarbital and bumetanide. Power of the first seizure in each recording was considered as 100%. Seizures were depressed by combination of drugs.
FIGS. 14A and 14B are graphs showing alteration of Cl^−-transport for early-life seizure therapy. […]

[2] = P9-12 rats, phenobarbital 25 mg/kg or bumetanide 0.1-0.2 mg/kg i.p.

Compound	effect of action potential trains on Cli (Na^+-K^+-ATPase)	animals with recurrent ictal-clonic activity / EEG clonic seizures (KA-induced rat seizures; P9-12 rats, drug i.p. 10 min after KA (phenobarbital 25 mg/kg; bumetanide 0.1-0.2 mg/kg), 6 rats per group) [%]	frequency of the ictal-tonic discharges (KA-induced rat seizures; P9-12 rats, phenobarbital 25 mg/kg i.p.) [Hz]	duration of ictal-clonic phase (KA-induced rat seizures; [2]) [s]	duration of ictal-tonic phase (KA-induced rat seizures; [2]) [s]	frequency of interictal spikes (KA-induced rat seizures; [2]) [Hz]	mean duration of single ictal episode (seizure including interictal and ictal phases) (KA-induced rat seizures; [2]) [s]	mean interval between seizures (KA-induced rat seizures; [2]) [s]	rats with ictal-tonic pattern / tonic-clonic seizures (KA-induced rat seizures; [2]) [%]	increase of power of EEG activity in the 20 minute window following seizure onset (KA-induced rat seizures; compared to pre-ictal baseline, phenobarbital 25 mg/kg or bumetanide 0.1-0.2 mg/kg i.p., saline control 444.7±136.3%) [%]	experiments in which seizure frequency was significantly reduced [1] [%]	seizure power ([1]; bumetanide 10 μM or both, 120 min application, intact hippocampus of P4-6 rats)
C[C@@H]1O[C@@H](O[C@H]2C[C@@H](O)[C@]3(CO)[C@H]4[C@H](O)C[C@]5(C)[C@@H]([C@@H]6COC(=O)C6)CC[C@]5(O)[C@@H]4CC[C@]3(O)C2)[C@H](O)[C@H](O)[C@H]1O [DHO, dihydroouabain]	no effect	–	–	–	–	–	–	–	–	–	–	–
CCC1(c2ccccc2)C(=O)NC(=O)NC1=O [phenobarbital]	–	100	14±3	12 ± 1.1	5.2 ± 1.4	1.56 ± 0.08	27.4 ± 2.6	241.3 ± 45.8	33.3	248±40.8	70	no significant effect
